Measured values as given in US6399593B1, “Cyclic regimens using cyclic urea and cyclic amide derivatives” (Wyeth, priority 1999, dated 2002).

System: T47D cells
Experiment: T47D cell proliferation assay (BrdU incorporation)
Assay type: cell-based
Details: second print headed Table 3, individual studies (Exp 1-3)
Experimental: The objective of this assay is the determination of progestational and antiprogestational potency by using a cell proliferation assay in T47D cells. A compound's effect on DNA synthesis in T47D cells is measured.
DMEM:F12 (1:1) (GIBCO, BRL) supplemented with 10% (v/v) fetal bovine serum (not heat-inactivated), 100 U/ml penicillin, […], and 2 mM GlutaMax (GIBCO, BRL).
Minimum Essential Medium (MEM) (#51200-038GIBCO, BRL) phenol red-free supplemented with 0.5% charcoal stripped fetal bovine serum, 100 U/ml penicillin, 200 mg/ml streptomycin, and 2 mM GlutaMax (GIBCO, BRL).
Stock T47D cells are maintained in growth medium. For BrdU incorporation assay, cells are plated in 96-well plates (Falcon, Becton Dickinson Labware) at 10,000 cells/well in growth medium. […]
At the end of BrdU labeling, the medium is removed and BrdU incorporation is measured using a cell proliferation ELISA kit (#RPN 250, Amersham Life Science) according to manufacturer's instructions. […] Then 25 μl of 1 M sulfuric acid is added to each well to stop color reaction and optical density is read in a plate reader at 450 nm within 5 min.
Square root-transformed data are used for analysis of variance and nonlinear dose response curve fitting for both agonist and antagonist modes. […] EC50 or IC50 values are calculated from the retransformed values. […]

EC50: 17 pM
Structure (SMILES): CC(=O)O[C@]1(C(C)=O)CC[C@H]2[C@@H]3C[C@H](C)C4=CC(=O)CC[C@]4(C)[C@H]3CC[C@@]21C [MPA, medroxyprogesterone acetate]
